# In PubChem BioAssay (NCI):
# Where “and” joins values, the source holds several entries; their conditions need not be identical. Identical values can stand only once.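 Cultured in 96-well plates, cells were exposed to test compound for 48 hours across five concentrations. GI50 marks 50% less growth. TGI is the concentration that stops growth completely.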
# How the values were obtained:
# Experiment in all cases: DTP human tumour cell line panel, 48 h
# [1] = system: SR leukemia
# [2] = system: BT-549 breast
# [3] = system: SN12C renal
# [4] = system: T-47D breast
# [5] = system: OVCAR-3 ovarian
# [6] = system: A549 NSCLC
# [7] = system: MCF7 breast
# [8] = system: HOP-92 NSCLC
# [9] = system: MOLT-4 leukemia
# [10] = system: UO-31 renal
Structure (SMILES),TGI [1],GI50 [2],TGI [2],GI50 [3],TGI [3],GI50 [4],TGI [4],GI50 [5],TGI [5],GI50 [6],TGI [6],GI50 [7],TGI [7],GI50 [8],TGI [8],GI50 [9],TGI [9],GI50 [10],TGI [10],GI50 [1]
O=c1[nH]c2ccccc2n1C1CCN(CCCC(c2ccc(F)cc2)c2ccc(F)cc2)CC1,5.22 µM,1.72 µM and 8.47 µM,3.31 µM and 23.6 µM,1.5 µM,2.97 µM and 23.4 µM,1.06 µM and 4.22 µM,2.67 µM and 17.7 µM,1.7 µM and 4.37 µM,3.13 µM and 13.1 µM,1.48 µM and 7.32 µM,3.14 µM and 21.9 µM,1.59 µM and 5.3 µM,3.1 µM and 11.8 µM,0.252 µM,1.71 µM and 14 µM,2.23 µM,5.75 µM and 16.6 µM,1.11 µM and 3.56 µM,2.44 µM and 18.1 µM,
CC1=NNC(=S)NCCCN2CCN(CCCNC(=S)NN=C(C)C=NNC(=S)NCCCN3CCN(CCCNC(=S)NN=C1)CC3)CC2,> 100 µM,,> 100 µM,,> 100 µM,,> 100 µM,,> 100 µM,,> 100 µM,,> 100 µM,,> 100 µM,,> 100 µM,,> 100 µM,
Nc1nc2ccccc2c2c1S(=O)(=O)c1ccc(Cl)cc1C2=O,> 50 µM,1.91 µM,> 50 µM,1.16 µM,4.54 µM,1.24 µM,> 50 µM,1.14 µM,3.33 µM,3.26 µM,> 50 µM,1.49 µM,> 50 µM,0.542 µM,3.63 µM,1.42 µM,8.86 µM,1.21 µM,9.38 µM,0.917 µM
C#CCNC(=O)NC(CCCCNC(=O)OCc1ccccc1)C(=O)OCc1ccccc1 (configuration not stated),> 100 µM,,> 100 µM,,> 81.1 µM,,> 32.4 µM,,> 100 µM,,> 100 µM,,> 100 µM,,54 µM,,85.7 µM,,44.6 µM,
COc1ccc(COc2cc3oc(=O)c4cc(C(C)O)ccc4c3cc2OC)cc1 (configuration not stated),> 100 µM,10.1 µM,49.4 µM,21.2 µM,> 100 µM,12.7 µM,> 100 µM,17.1 µM,63.1 µM,14 µM,> 100 µM,9.49 µM,> 100 µM,4.22 µM,33.5 µM,> 23 µM,> 100 µM,14.7 µM,> 100 µM,49.7 µM
C=CCN(CC=C)C(=O)[C@H](CC)[C@@H]1CC[C@@H](C)[C@@H]([C@H](C)[C@@H](O)[C@@H](C)C(=O)[C@H](CC)C2O[C@]3(C=C[C@@H](O)[C@]4(CC[C@@](C)([C@H]5CC[C@](O)(CC)[C@H](C)O5)O4)O3)[C@H](C)C[C@@H]2C)O1 (some centres not stated),7.1 µM,3.03 µM,12.3 µM,2.2 µM,6.42 µM,2.37 µM,13.5 µM,1.92 µM,4.57 µM,3.37 µM,> 100 µM,1.95 µM,5.14 µM,1.39 µM,4.31 µM,2.33 µM,6.01 µM,2.16 µM,7.46 µM,2.41 µM
COc1ccc2c(c1)C(=O)c1c-2c(=O)n(CCCN(C)C)c2cc(OC)c(OC)cc12,7.63 µM,83.6 µM,> 100 µM,2.18 µM,16.6 µM,> 100 µM,> 100 µM,13.7 µM,26.9 µM,7.03 µM,22 µM,0.141 µM,15.3 µM,> 100 µM,> 100 µM,0.149 µM,12 µM,3.4 µM,16.1 µM,0.128 µM
O=S(=O)(NCCCNc1cc(-c2cn(-c3ccccc3)nc2-c2cccc(O)c2)ccn1)c1ccc(F)cc1,6.09 µM,2.28 µM,7.78 µM,4.32 µM,28.2 µM,2.89 µM,8.76 µM,3.28 µM,14.9 µM,5.11 µM,21 µM,3.26 µM,12.4 µM,2.66 µM,7.62 µM,2.15 µM,6.55 µM,2.62 µM,11.9 µM,2.08 µM
COc1c(CC=C(C)C)c(O)c(C(CC(C)C)c2c(O)c(CC=C(C)C)c(O)c(C(C)=O)c2O)c(O)c1C(C)=O (configuration not stated),3.8 µM,,14.9 µM,,6.84 µM,,16 µM,,12.5 µM,,12.1 µM,,4.84 µM,,0.562 µM,,2.48 µM,,11.1 µM,
COc1ccc(S(=O)(=O)N2CCNCC2)cc1OC,> 100 µM,> 100 µM,> 100 µM,> 100 µM,> 100 µM,> 100 µM,> 100 µM,> 100 µM,> 100 µM,> 100 µM,> 100 µM,> 100 µM,> 100 µM,> 100 µM,> 100 µM,> 100 µM,> 100 µM,> 100 µM,> 100 µM,> 100 µM
CSC1=Nc2c(c(C)c(-c3ccccc3)n2COC(CO)CO)C2=NC(=O)CN12,> 100 µM,> 100 µM,> 100 µM,> 100 µM,> 100 µM,> 100 µM,> 100 µM,> 100 µM,> 100 µM,> 100 µM,> 100 µM,> 100 µM,> 100 µM,> 100 µM,> 100 µM,> 100 µM,> 100 µM,> 100 µM,> 100 µM,> 100 µM
Cn1c(C(=O)c2cccc3ccccc23)nc2ccccc21,> 100 µM,> 100 µM,> 100 µM,> 100 µM,> 100 µM,22 µM,> 100 µM,> 100 µM,> 100 µM,> 100 µM,> 100 µM,3.81 µM,> 100 µM,35.9 µM,> 100 µM,> 100 µM,> 100 µM,46.1 µM,> 100 µM,> 100 µM
CCn1ccnc1C(=O)/C=C/c1ccc(CC(=O)Nc2ccc(F)cc2)cc1,11.1 µM,2.94 µM,7.03 µM,3.71 µM,> 16.7 µM,3.79 µM,> 16.7 µM,3.92 µM,> 16.7 µM,4.16 µM,12.7 µM,2.52 µM,> 16.7 µM,3.32 µM,8.83 µM,5.28 µM,14.5 µM,2.65 µM,10.5 µM,0.529 µM
N#Cc1cccc(Nc2ncc(-c3ccccc3)o2)c1,> 25 µM,> 20.7 µM,> 25 µM,24.2 µM,> 25 µM,11.7 µM,> 25 µM,8.71 µM,> 25 µM,11.7 µM,> 25 µM,8.25 µM,> 25 µM,7.32 µM,> 25 µM,> 25 µM,> 25 µM,7.84 µM,> 25 µM,11.8 µM
COc1cc2c(cc1NC(=O)C(Cl)Cl)-c1ccc(NC(=O)C(Cl)Cl)cc1C2,24.2 µM,1.74 µM,13.3 µM,4.67 µM,19.6 µM,0.707 µM,8.6 µM,0.569 µM,1.25 µM,0.741 µM,2.73 µM,0.391 µM,1.82 µM,1.15 µM,3.54 µM,11.9 µM,> 89.6 µM,0.73 µM,2.75 µM,5.27 µM
COC1=C(OC)[C@]2(OC)c3c(O)c(OC)c4c(c3O[C@@]23O[C@@H](c2ccccc2)CC=C3C1=O)[C@@H](OC)C[C@H](c1ccccc1)O4,0.133 µM,0.461 µM,1.56 µM,0.317 µM,1.03 µM,0.564 µM,1.71 µM,0.255 µM,0.72 µM,2.21 µM,5.02 µM,0.265 µM,1.36 µM,1.24 µM,2.55 µM,0.0401 µM,0.194 µM,0.957 µM,2.13 µM,0.0317 µM
C[C@@H](NC(=O)c1ccc(F)cc1)c1ccc2c(c1)CCN2C(=O)C1CCOCC1,> 100 µM,> 100 µM,> 100 µM,> 100 µM,> 100 µM,> 100 µM,> 100 µM,> 100 µM,> 100 µM,> 100 µM,> 100 µM,> 100 µM,> 100 µM,> 100 µM,> 100 µM,> 100 µM,> 100 µM,> 100 µM,> 100 µM,> 100 µM
Cc1cc2c(c(=O)o1)C1=S(SC(c3ccccc3)=C1)S2 (configuration not stated),38.5 µM,,> 100 µM,,> 100 µM,,> 100 µM,,75.2 µM,,> 100 µM,,> 100 µM,,83 µM,,> 100 µM,,94.8 µM,
C/C(=N\NC(=S)N1CCN(c2ccccn2)CC1)c1ncccn1,12.3 µM,0.0936 µM,18.8 µM,0.0709 µM,18.1 µM,,18.5 µM,0.213 µM,7.5 µM and 15.3 µM,0.117 µM,5.91 µM and 13.2 µM,,13.4 µM,0.208 µM,5.91 µM and 3.08 µM,,7.02 µM and > 38.4 µM,0.535 µM,4.58 µM and 13.7 µM,0.0622 µM
COc1c(OC(C)C)cc2cc(O)c(C(=O)NC3Cc4ccc(c(Cl)n4)O[C@@H]4C=C5C#C/C(=C\C#CC6OC56C4OC4CC(C)(O)C(O)C(C)O4)C(OC4CC(O)C(N(C)C)C(C)O4)COC3=O)cc2c1OC (some centres not stated),> 36.3 µM and 0.746 µg/mL,,> 36.3 µM,17.7 µM and 0.718 µg/mL,> 36.3 µM and 9.82 µg/mL,,> 36.3 µM,> 36.3 µM and 21.3 µg/mL,> 36.3 µM and 37.5 µg/mL,> 36.3 µM and 0.798 µg/mL,> 36.3 µM and 37.5 µg/mL,,> 36.3 µM,0.482 µg/mL,> 36.3 µM and 2.94 µg/mL,0.00979 µg/mL,14.2 µg/mL,> 36.3 µM and 6.42 µg/mL,> 36.3 µM and 37.5 µg/mL,8.27 µM and 0.0174 µg/mL
CC(C)N(Cc1ccc(F)cc1)c1ccc(CO)c(Cl)c1,32.5 µM,12.3 µM,25.7 µM,10.8 µM,23.2 µM,0.0645 µM,0.515 µM,0.184 µM,0.623 µM,1.03 µM,17.5 µM,0.181 µM,13.2 µM,0.205 µM,4.22 µM,11 µM,32.6 µM,0.732 µM,14.2 µM,12.8 µM
CN(C)c1nc(N)c(C#N)c(C#N)c1C#N,> 10 µM,,> 10 µM,,> 10 µM,,> 10 µM,,> 10 µM,,> 10 µM,,> 10 µM,,> 10 µM,,> 10 µM,,> 10 µM,
CCOC(=O)C(Cc1ccc(N(CCCl)CCCl)cc1)NC(=O)C(Cc1ccccc1)NC(C)=O (configuration not stated),> 1 µM,,> 0.798 µM,,> 0.296 µM,,> 0.928 µM,,0.361 µM,,> 1 µM,,0.496 µM,,> 1 µM,,0.201 µM,,> 0.328 µM,
CN(C)CCCn1c2c(c3cc4c(cc3c1=O)OCO4)C(=O)c1ccccc1-2,0.0486 µM,5.52 µM,29 µM,0.203 µM,3.16 µM,22.7 µM,> 100 µM,2.36 µM,6.46 µM,0.105 µM,2.43 µM,6.84 µM,> 26.8 µM,0.713 µM,6.37 µM,< 0.0218 µM,0.792 µM,4.19 µM,39.9 µM,
NC(=O)CC(N)c1nn[nH]n1 (configuration not stated),> 100 µM,,> 100 µM,,> 100 µM,,> 100 µM,,> 100 µM,,> 100 µM,,> 100 µM,,> 100 µM,,> 100 µM,,> 100 µM,
O=S(=O)(O)c1ccc2cc3nn(-c4ccc(/C=C/c5ccc(-n6nc7cc8ccc(S(=O)(=O)O)cc8cc7n6)cc5S(=O)(=O)O)c(S(=O)(=O)O)c4)nc3cc2c1,> 100 µM,> 100 µM,> 100 µM,67.8 µM,> 100 µM,> 100 µM,> 100 µM,> 100 µM,> 100 µM,41.7 µM,> 100 µM,> 100 µM,> 100 µM,88.7 µM,> 100 µM,12.2 µM,81.7 µM,26.1 µM,> 100 µM,34.4 µM
